Experimental findings from patent publication US11578061B2, “Inhibitors of LRRK2 kinase” (Halia Therapeutics, Inc., priority 2021, dated 2023) are described below.

Sequence of recombinant human LRRK2 (catalytic domain only [amino acids 970-2527], GST-tagged) (Q5S007 970-2527): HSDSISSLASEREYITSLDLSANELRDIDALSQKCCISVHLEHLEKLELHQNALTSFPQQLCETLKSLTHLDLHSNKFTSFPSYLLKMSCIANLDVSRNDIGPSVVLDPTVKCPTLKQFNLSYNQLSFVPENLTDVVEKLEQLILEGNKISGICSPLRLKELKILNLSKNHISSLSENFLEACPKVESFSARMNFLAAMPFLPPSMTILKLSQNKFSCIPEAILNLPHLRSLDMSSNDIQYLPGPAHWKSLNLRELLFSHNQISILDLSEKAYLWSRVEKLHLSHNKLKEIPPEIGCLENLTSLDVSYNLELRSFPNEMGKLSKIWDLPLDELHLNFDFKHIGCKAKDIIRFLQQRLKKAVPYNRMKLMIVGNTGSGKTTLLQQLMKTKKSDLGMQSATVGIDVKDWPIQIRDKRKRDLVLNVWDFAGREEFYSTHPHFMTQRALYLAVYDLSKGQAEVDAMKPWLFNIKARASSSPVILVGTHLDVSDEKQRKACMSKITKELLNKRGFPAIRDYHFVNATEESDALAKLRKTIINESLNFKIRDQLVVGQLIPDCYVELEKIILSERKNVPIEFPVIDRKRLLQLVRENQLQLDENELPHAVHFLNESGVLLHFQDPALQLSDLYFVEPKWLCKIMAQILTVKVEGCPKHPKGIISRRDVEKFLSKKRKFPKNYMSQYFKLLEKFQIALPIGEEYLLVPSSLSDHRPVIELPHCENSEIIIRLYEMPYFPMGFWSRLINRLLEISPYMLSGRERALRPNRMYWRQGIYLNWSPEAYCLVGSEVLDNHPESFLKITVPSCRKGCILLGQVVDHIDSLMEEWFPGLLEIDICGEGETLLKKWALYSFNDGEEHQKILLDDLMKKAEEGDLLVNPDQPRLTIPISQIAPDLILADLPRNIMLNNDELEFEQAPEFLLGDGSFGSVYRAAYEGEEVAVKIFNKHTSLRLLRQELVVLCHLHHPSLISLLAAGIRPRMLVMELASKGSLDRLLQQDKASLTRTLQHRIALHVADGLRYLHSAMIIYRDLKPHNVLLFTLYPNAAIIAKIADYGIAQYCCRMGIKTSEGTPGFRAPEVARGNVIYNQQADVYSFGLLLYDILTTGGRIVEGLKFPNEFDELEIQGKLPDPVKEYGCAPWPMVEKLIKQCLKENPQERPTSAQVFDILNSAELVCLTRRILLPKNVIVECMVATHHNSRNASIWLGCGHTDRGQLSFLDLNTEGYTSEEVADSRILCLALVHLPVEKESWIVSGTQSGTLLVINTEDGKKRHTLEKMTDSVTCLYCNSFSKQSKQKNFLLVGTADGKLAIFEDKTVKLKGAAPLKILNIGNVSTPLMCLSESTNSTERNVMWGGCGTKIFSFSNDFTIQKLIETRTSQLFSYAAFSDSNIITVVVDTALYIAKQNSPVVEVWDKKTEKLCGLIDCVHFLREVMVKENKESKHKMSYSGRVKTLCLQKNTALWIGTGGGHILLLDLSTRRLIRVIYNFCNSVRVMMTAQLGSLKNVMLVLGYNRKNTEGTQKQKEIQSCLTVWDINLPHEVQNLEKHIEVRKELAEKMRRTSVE

The assay addresses recombinant human LRRK2 (catalytic domain only [amino acids 970-2527], GST-tagged) (Homo sapiens (Human), UniProt Q5S007). Nature of the assay: LRRK2 Enzymatic Assay. Format: biochemical. The conditions noted are these: LRRKtide substrate, [32P]-ATP. In short, it runs like this: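 Radiometric P81 filter-binding read-out of [32P]-ATP transfer to LRRKtide (20 μM) by 30 nM GST-LRRK2 970-2527, 2 h at room temperature after 20 min compound preincubation (10 μM–0.5 nM, 1% DMSO). IC50 derived from % remaining activity versus DMSO.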
In the case of `CC(C)n1cc(Nc2ncc(F)c(OCC34CCC(O)(CC3)CC4)n2)cn1` [Example 256, 4-(((5-fluoro-2-((1-isopropyl-1H-pyrazol-4-yl)amino)pyrimidin-4-yl)oxy)methyl)bicyclo[2.2.2]octan-1-ol], the IC50 was less than 50 nM.
The figure for `Cc1nn(C(C)(C)C#N)cc1Nc1ncc(F)c(OCC23CCC(O)(CC2)CC3)n1` [Example 257, 2-(4-((5-fluoro-4-((4-hydroxybicyclo[2.2.2]octan-1-yl)methoxy)pyrimidin-2-yl)amino)-3-methyl-1H-pyrazol-1-yl)-2-methylpropanenitrile] is 50 to 200 nM.
The same measure for `O[C@@H]1CC[C@H](COc2nc(Nc3ccc(N4CCOCC4)cc3)ncc2F)C[C@H]1F` [Example 258, (1R,2R,4S)-2-fluoro-4-(((5-fluoro-2-((4-morpholinophenyl)amino)pyrimidin-4-yl)oxy)methyl)cyclohexan-1-ol]: 50 to 200 nM; for `Cc1nn(C(C)(C)C#N)cc1Nc1ncc(F)c(OC[C@H]2CC[C@@H](O)[C@H](F)C2)n1` [Example 259]: less than 50 nM.
The same measure for `OC1(C(F)(F)F)CCC(COc2nc(Nc3ccc(N4CCOCC4)cc3)ncc2F)CC1` (centres unmarked) [Example 260, 4-(((5-fluoro-2-((4-morpholinophenyl)amino)pyrimidin-4-yl)oxy)methyl)-1-(trifluoromethyl)cyclohexan-1-ol]: 50 to 200 nM.
In the case of `C[C@@H]1CN(c2ccc(Nc3ncc(F)c(OCC4CCC(O)(C(F)(F)F)CC4)n3)cc2)C[C@H](C)O1` (stereo partly drawn) [Example 261, 4-(((2-((4-((2S,6R)-2,6-dimethylmorpholino)phenyl)amino)-5-fluoropyrimidin-4-yl)oxy)methyl)-1-(trifluoromethyl)cyclohexan-1-ol], the half-inhibitory concentration (IC50) fell in the range of 50 to 200 nM.
The same measure for `Cc1nn(C(C)(C)C#N)cc1Nc1ncc(F)c(OCC2CCC(O)(C(F)(F)F)CC2)n1` (centres unmarked) [Example 262, 2-(4-((5-fluoro-4-((4-hydroxy-4-(trifluoromethyl)cyclohexyl)methoxy)pyrimidin-2-yl)amino)-3-methyl-1H-pyrazol-1-yl)-2-methylpropanenitrile]: 50 to 200 nM.
`Cc1nc(Nc2ccc(N3CCOCC3)cc2)nc(OC[C@H]2CC[C@H](O)CC2)c1F` [Example 265, (1R,4R)-4-(((5-fluoro-6-methyl-2-((4-morpholinophenyl)amino)pyrimidin-4-yl)oxy)methyl)cyclohexan-1-ol]: the IC50 is more than 400 nM.
The figure for `Cc1nc(Nc2ccc(N3C[C@@H](C)O[C@@H](C)C3)cc2)nc(OC[C@H]2CC[C@H](O)CC2)c1F` [Example 266, (1R,4R)-4-(((2-((4-((2S,6R)-2,6-dimethylmorpholino)phenyl)amino)-5-fluoro-6-methylpyrimidin-4-yl)oxy)methyl)cyclohexan-1-ol] is more than 400 nM.
Take `Cc1nn(C(C)(C)C#N)cc1Nc1nc(C)c(F)c(OC[C@H]2CC[C@H](O)CC2)n1` [Example 267, 2-(4-((5-fluoro-4-(((1R,4R)-4-hydroxycyclohexyl)methoxy)-6-methylpyrimidin-2-yl)amino)-3-methyl-1H-pyrazol-1-yl)-2-methylpropanenitrile]: the IC50 was more than 400 nM.
The same measure for `Fc1cnc(Nc2ccc(N3CCOCC3)cc2)nc1OCC1CCC(F)(F)CC1` [Example 268, 4-((4,4-difluorocyclohexyl)methoxy)-5-fluoro-N-(4-morpholinophenyl)pyrimidin-2-amine]: 50 to 200 nM; for `C[C@@H]1CN(c2ccc(Nc3ncc(F)c(OCC4CCC(F)(F)CC4)n3)cc2)C[C@H](C)O1` [Example 269, 4-((4,4-difluorocyclohexyl)methoxy)-N-(4-((2R,6S)-2,6-dimethylmorpholino)phenyl)-5-fluoropyrimidin-2-amine]: 200 to 400 nM.
As to `Cc1nn(C(C)(C)C#N)cc1Nc1ncc(F)c(OCC2CCC(F)(F)CC2)n1` [Example 270, 2-(4-((4-((4,4-difluorocyclohexyl)methoxy)-5-fluoropyrimidin-2-yl)amino)-3-methyl-1H-pyrazol-1-yl)-2-methylpropanenitrile], the IC50 was in the range of 50 to 200 nM.
For `C[C@@H]1CN(c2ccc(Nc3ncc(F)c(OCC4CCC(F)(F)C4)n3)cc2)C[C@H](C)O1` (stereo partly drawn) [Example 271, 4-((3,3-difluorocyclopentyl)methoxy)-N-(4-((2S,6R)-2,6-dimethylmorpholino)phenyl)-5-fluoropyrimidin-2-amine], the IC50 is 50 to 200 nM.
For the compound `CCO[C@H]1CC[C@@H](COc2nc(Nc3ccc(N4CCOCC4)cc3)ncc2F)CC1` [Example 275, 4-(((1S,4S)-4-ethoxycyclohexyl)methoxy)-5-fluoro-N-(4-morpholinophenyl)pyrimidin-2-amine], the IC50 was in the range of 50 to 200 nM.
Consider `CCO[C@H]1CC[C@@H](COc2nc(Nc3ccc(N4C[C@@H](C)O[C@@H](C)C4)cc3)ncc2F)CC1` [Example 276, N-(4-((2S,6R)-2,6-dimethylmorpholino)phenyl)-4-(((1S,4S)-4-ethoxycyclohexyl)methoxy)-5-fluoropyrimidin-2-amine], for which the IC50 was 50 to 200 nM.
In the case of `CCO[C@H]1CC[C@@H](COc2nc(Nc3cn(C(C)(C)C#N)nc3C)ncc2F)CC1` [Example 277, 2-(4-((4-(((1s,4s)-4-ethoxycyclohexyl)methoxy)-5-fluoropyrimidin-2-yl)amino)-3-methyl-1H-pyrazol-1-yl)-2-methylpropanenitrile], the IC50 was less than 50 nM.
The figure for `C[C@@H]1CN(c2ccc(Nc3ncc(F)c(OCC4CCC(OC(F)(F)F)CC4)n3)cc2)C[C@H](C)O1` (stereo partly drawn) [Example 283, N-(4-((2S,6R)-2,6-dimethylmorpholino)phenyl)-5-fluoro-4-((4-(trifluoromethoxy)cyclohexyl)methoxy)pyrimidin-2-amine] is more than 400 nM.
The figure for `C[C@@H]1CN(c2ccc(Nc3ncc(F)c(OC[C@H]4CC[C@H](OC(F)F)CC4)n3)cc2)C[C@H](C)O1` [Example 285, 4-(((1R,4R)-4-(difluoromethoxy)cyclohexyl)methoxy)-N-(4-((2S,6R)-2,6-dimethylmorpholino)phenyl)-5-fluoropyrimidin-2-amine] is 200 to 400 nM; for `Cc1nn(C(C)(C)C#N)cc1Nc1ncc(F)c(OC[C@H]2CC[C@H](OC(F)F)CC2)n1` [Example 286, 2-(4-((4-(((1R,4R)-4-(difluoromethoxy)cyclohexyl)methoxy)-5-fluoropyrimidin-2-yl)amino)-3-methyl-1H-pyrazol-1-yl)-2-methylpropanenitrile] it is 50 to 200 nM.
For `O=S1(=O)CCC(COc2nc(Nc3ccc(N4CCOCC4)cc3)ncc2F)CC1` [Example 287, 4-(((5-fluoro-2-((4-morpholinophenyl)amino)pyrimidin-4-yl)oxy)methyl)tetrahydro-2H-thiopyran 1,1-dioxide], the IC50 was more than 400 nM.
The same measure for `C[C@@H]1CN(c2ccc(Nc3ncc(F)c(OCC4CCS(=O)(=O)CC4)n3)cc2)C[C@H](C)O1` [Example 288, 4-(((2-((4-((2R,6S)-2,6-dimethylmorpholino)phenyl)amino)-5-fluoropyrimidin-4-yl)oxy)methyl)tetrahydro-2H-thiopyran 1,1-dioxide]: more than 400 nM.
The figure for `Cc1nn(C(C)(C)C#N)cc1Nc1ncc(F)c(OCC2CS(=O)(=O)C2)n1` [Example 289, 2-(4-((4-((1,1-dioxidothietan-3-yl)methoxy)-5-fluoropyrimidin-2-yl)amino)-3-methyl-1H-pyrazol-1-yl)-2-methylpropanenitrile] is more than 400 nM.
